Assay results: the NIST ThermoML archive (doi:10.1016/j.jct.2015.06.017)

Conditions: Liquid, Closed cell (Static) method

C=CC [propene]
Conditions	vapor or sublimation pressure [kPa]
282.97 K	769
287.57 K	873
293.48 K	1028
298.02 K	1152
302.83 K	1291
307.67 K	1458
314.06 K	1691
318.36 K	1854
322.91 K	2039
327.27 K	2239
